Paper PMC12005229, “Final results from the phase Ia/Ib study of the novel bromodomain and extra-terminal domain inhibitor, BI 894999, in patients with advanced solid tumors or diffuse large B-cell lymphoma” (ESMO Open, 2025)
Where “and” joins values, the source holds several entries; their conditions need not be identical. Equal values may be shown once. Entries after “also recorded” stand apart in the source; their conditions may differ.

System: patients with advanced solid tumors (SCLC, CRC, mCRPC, NUT carcinoma)
Experiment: phase Ib expansion: DLTs, adverse events, exposure
Conditions: for DLT / DLT grade / DLT outcome / DLT duration: individual patient events; for patients with DLTs: phase Ib schedule B
[1] = phase Ib CRC, schedule B 2.5 mg
[2] = phase Ib NUT carcinoma, schedule B 2.5 mg
[3] = phase Ib NUT carcinoma, schedule C 6.0/3.0 mg
[4] = phase Ib SCLC, schedule B 2.5 mg
[5] = phase Ib mCRPC, schedule B 2.5 mg
[6] = phase Ib, NUT carcinoma total n = 42

Excerpt: The primary endpoint for the phase Ib expansion was the number of patients who experienced DLTs during the study treatment period.
For fatigue at baseline, there had to be an increase of two or more grades.

CNc1nc(-c2nc3ccc(N4CCN(C)CC4)cc3n2Cc2ccccc2)cn2c(C)nnc12 [BI 894999]
most frequent DLT (phase Ia DLBCL extension and phase Ib): grade 4 thrombocytopenia
discontinuation because of DLT (phase Ib): 3.8%
discontinuation because of other AEs (phase Ib): 10.1%
discontinuation because of progressive disease (phase Ib): 78.5%
dose continuations due to AEs (phase Ib): 13.9%
dose reductions due to AEs (phase Ib): 16.5%
median time to first dose reduction (phase Ib): 35.5 days
patients who died because of AEs (phase Ib): 8.9%
patients who required a dose reduction (phase Ib): 20.3%
patients with AEs of any grade (phase Ib): 100%
patients with treatment-related AEs (phase Ib): 83.5%
thrombocytopenia leading to dose discontinuation (phase Ib): 2.5%
DLT [1]: Dermatitis acneiform; also recorded: Thrombocytopenia
DLT grade [1]: 3 and 4
DLT outcome [1]: Not recovered
DLT [2]: Decreased platelet count
DLT duration [2]: 6 days
DLT grade [2]: 4
DLT outcome [2]: Not recovered
DLT [3]: Pleural effusion; also recorded: Fatigue; also recorded: Diarrhea; also recorded: Decreased platelet count
DLT duration [3]: 3 days and 16 days and 36 days
DLT grade [3]: 3 and 4
DLT outcome [3]: Recovered; also recorded: Not recovered
DLT [4]: Laryngeal inflammation; also recorded: Thrombocytopenia; also recorded: Decreased appetite; also recorded: Fatigue; also recorded: Troponin T increased
DLT duration [4]: 4 days and 9 days and 11 days and 6 days
DLT grade [4]: 3 and 4
DLT outcome [4]: Not recovered; also recorded: Recovered
DLT [5]: Thrombocytopenia; also recorded: Decreased platelet count; also recorded: Troponin T increased; also recorded: Stomatitis; also recorded: Nausea; also recorded: Decreased appetite; also recorded: Hypophosphatemia
DLT duration [5]: 40 days and 4 days and 3 days and 8 days and 12 days and 22 days
DLT grade [5]: 4 and 3
DLT outcome [5]: Not recovered; also recorded: Recovered
patients with DLTs (CRC): 2 n
patients with DLTs (NUT carcinoma): 2 n
patients with DLTs (SCLC): 3 n
patients with DLTs (mCRPC): 7 n
ALT increase, treatment-related AE, any grade (phase Ib, CRC n = 14): 0 n (%)
ALT increase, treatment-related AE, grade ≥3 (phase Ib, CRC n = 14): 0 n (%)
Anemia, treatment-related AE, any grade (phase Ib, CRC n = 14): 3 (21.4) n (%)
Anemia, treatment-related AE, grade ≥3 (phase Ib, CRC n = 14): 2 (14.3) n (%)
Decreased appetite, treatment-related AE, any grade (phase Ib, CRC n = 14): 5 (35.7) n (%)
Decreased appetite, treatment-related AE, grade ≥3 (phase Ib, CRC n = 14): 0 n (%)
Decreased platelet count, treatment-related AE, any grade (phase Ib, CRC n = 14): 1 (7.1) n (%)
Decreased platelet count, treatment-related AE, grade ≥3 (phase Ib, CRC n = 14): 1 (7.1) n (%)
Diarrhea, treatment-related AE, any grade (phase Ib, CRC n = 14): 6 (42.9) n (%)
Diarrhea, treatment-related AE, grade ≥3 (phase Ib, CRC n = 14): 2 (14.3) n (%)
Dysgeusia, treatment-related AE, any grade (phase Ib, CRC n = 14): 3 (21.4) n (%)
Dysgeusia, treatment-related AE, grade ≥3 (phase Ib, CRC n = 14): 0 n (%)
Epistaxis, treatment-related AE, any grade (phase Ib, CRC n = 14): 1 (7.1) n (%)
Epistaxis, treatment-related AE, grade ≥3 (phase Ib, CRC n = 14): 0 n (%)
Fatigue, treatment-related AE, any grade (phase Ib, CRC n = 14): 4 (28.6) n (%)
Fatigue, treatment-related AE, grade ≥3 (phase Ib, CRC n = 14): 0 n (%)
Nausea, treatment-related AE, any grade (phase Ib, CRC n = 14): 3 (21.4) n (%)
Nausea, treatment-related AE, grade ≥3 (phase Ib, CRC n = 14): 0 n (%)
Number of patients with treatment-related AEs (phase Ib, CRC n = 14): 12 (85.7) n (%)
Thrombocytopenia, treatment-related AE, any grade (phase Ib, CRC n = 14): 5 (35.7) n (%)
Thrombocytopenia, treatment-related AE, grade ≥3 (phase Ib, CRC n = 14): 3 (21.4) n (%)
Vomiting, treatment-related AE, any grade (phase Ib, CRC n = 14): 3 (21.4) n (%)
Vomiting, treatment-related AE, grade ≥3 (phase Ib, CRC n = 14): 2 (14.3) n (%)
Weight decrease, treatment-related AE, any grade (phase Ib, CRC n = 14): 1 (7.1) n (%)
Weight decrease, treatment-related AE, grade ≥3 (phase Ib, CRC n = 14): 0 n (%)
ALT increase, treatment-related AE, any grade [6]: 5 (11.9) n (%)
ALT increase, treatment-related AE, grade ≥3 [6]: 0 n (%)
Anemia, treatment-related AE, any grade [6]: 11 (26.2) n (%)
Anemia, treatment-related AE, grade ≥3 [6]: 6 (14.3) n (%)
Decreased appetite, treatment-related AE, any grade [6]: 1 (2.4) n (%)
Decreased appetite, treatment-related AE, grade ≥3 [6]: 0 n (%)
Decreased platelet count, treatment-related AE, any grade [6]: 15 (35.7) n (%)
Decreased platelet count, treatment-related AE, grade ≥3 [6]: 7 (16.7) n (%)
Diarrhea, treatment-related AE, any grade [6]: 8 (19.0) n (%)
Diarrhea, treatment-related AE, grade ≥3 [6]: 1 (2.4) n (%)
Dysgeusia, treatment-related AE, any grade [6]: 5 (11.9) n (%)
Dysgeusia, treatment-related AE, grade ≥3 [6]: 0 n (%)
Epistaxis, treatment-related AE, any grade [6]: 1 (2.4) n (%)
Epistaxis, treatment-related AE, grade ≥3 [6]: 0 n (%)
Fatigue, treatment-related AE, any grade [6]: 10 (23.8) n (%)
Fatigue, treatment-related AE, grade ≥3 [6]: 4 (9.5) n (%)
Nausea, treatment-related AE, any grade [6]: 2 (4.8) n (%)
Nausea, treatment-related AE, grade ≥3 [6]: 0 n (%)
Number of patients with treatment-related AEs [6]: 32 (76.2) n (%)
Thrombocytopenia, treatment-related AE, any grade [6]: 10 (23.8) n (%)
Thrombocytopenia, treatment-related AE, grade ≥3 [6]: 6 (14.3) n (%)
